From patent EP4796538A1, “NOVEL QUINOXALINE COMPOUNDS, MANUFACTURING METHOD THEREOF, AND USES THEREOF” (Gachon University of Industry-Academic Cooperation …, priority 2023, dated 2025)
Like-named read-outs stand apart in the source and are kept apart here.

What was measured:
RET-CCDC6 (PTC1) = target: T1, RET-CCDC6 (PTC1) (Homo sapiens, UniProt P07949); assay: Kinase panel inhibition, radiolabeled [γ-33P] ATP (Reaction Biology Corp); assay type: biochemical; details: compound at 10 uM, ATP 1 µM
T1 construct: purchased Reaction Biology Corp
T1 sequence (P07949 whole entry, looked up): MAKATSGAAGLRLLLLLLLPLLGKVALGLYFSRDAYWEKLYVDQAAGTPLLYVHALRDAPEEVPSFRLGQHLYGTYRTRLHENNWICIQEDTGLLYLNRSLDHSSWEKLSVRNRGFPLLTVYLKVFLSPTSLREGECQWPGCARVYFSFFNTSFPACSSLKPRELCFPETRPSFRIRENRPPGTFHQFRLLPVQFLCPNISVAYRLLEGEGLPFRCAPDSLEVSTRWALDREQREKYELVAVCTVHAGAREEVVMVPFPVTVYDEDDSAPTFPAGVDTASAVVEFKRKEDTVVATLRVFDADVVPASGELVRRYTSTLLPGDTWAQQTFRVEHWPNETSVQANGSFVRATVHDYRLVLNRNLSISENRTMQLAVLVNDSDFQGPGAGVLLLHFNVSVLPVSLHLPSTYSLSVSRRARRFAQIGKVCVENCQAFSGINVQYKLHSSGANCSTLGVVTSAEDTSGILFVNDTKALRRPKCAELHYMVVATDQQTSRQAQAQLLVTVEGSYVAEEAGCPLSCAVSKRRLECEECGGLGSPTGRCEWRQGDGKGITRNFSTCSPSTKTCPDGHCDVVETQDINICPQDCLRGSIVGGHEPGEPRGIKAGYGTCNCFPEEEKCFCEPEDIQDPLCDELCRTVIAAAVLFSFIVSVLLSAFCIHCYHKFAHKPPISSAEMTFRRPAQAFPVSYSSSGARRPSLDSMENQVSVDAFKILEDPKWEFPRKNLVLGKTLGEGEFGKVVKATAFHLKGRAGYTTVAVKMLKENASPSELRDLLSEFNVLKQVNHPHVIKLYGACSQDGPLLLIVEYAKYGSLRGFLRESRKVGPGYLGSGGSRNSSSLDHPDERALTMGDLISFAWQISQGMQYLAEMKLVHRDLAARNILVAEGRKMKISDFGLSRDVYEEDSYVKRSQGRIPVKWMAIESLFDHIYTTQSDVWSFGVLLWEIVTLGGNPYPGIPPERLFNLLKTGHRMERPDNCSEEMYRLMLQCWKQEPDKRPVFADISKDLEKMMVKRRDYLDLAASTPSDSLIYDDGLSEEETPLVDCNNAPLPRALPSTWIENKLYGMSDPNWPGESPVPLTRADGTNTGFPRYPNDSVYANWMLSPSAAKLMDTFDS

RET (G810S/M918T) = target: T2, RET (G810S/M918T) (Homo sapiens, UniProt P07949, G810S/M918T); assay: as above; assay type: biochemical; details: ATP 1 µM; for remaining activity at 10 µM: compound at 10 uM; for remaining activity at 30 µM: compound at 30uM
T2 construct: purchased Reaction Biology Corp
T2 sequence (P07949 29-1114 G810S/M918T): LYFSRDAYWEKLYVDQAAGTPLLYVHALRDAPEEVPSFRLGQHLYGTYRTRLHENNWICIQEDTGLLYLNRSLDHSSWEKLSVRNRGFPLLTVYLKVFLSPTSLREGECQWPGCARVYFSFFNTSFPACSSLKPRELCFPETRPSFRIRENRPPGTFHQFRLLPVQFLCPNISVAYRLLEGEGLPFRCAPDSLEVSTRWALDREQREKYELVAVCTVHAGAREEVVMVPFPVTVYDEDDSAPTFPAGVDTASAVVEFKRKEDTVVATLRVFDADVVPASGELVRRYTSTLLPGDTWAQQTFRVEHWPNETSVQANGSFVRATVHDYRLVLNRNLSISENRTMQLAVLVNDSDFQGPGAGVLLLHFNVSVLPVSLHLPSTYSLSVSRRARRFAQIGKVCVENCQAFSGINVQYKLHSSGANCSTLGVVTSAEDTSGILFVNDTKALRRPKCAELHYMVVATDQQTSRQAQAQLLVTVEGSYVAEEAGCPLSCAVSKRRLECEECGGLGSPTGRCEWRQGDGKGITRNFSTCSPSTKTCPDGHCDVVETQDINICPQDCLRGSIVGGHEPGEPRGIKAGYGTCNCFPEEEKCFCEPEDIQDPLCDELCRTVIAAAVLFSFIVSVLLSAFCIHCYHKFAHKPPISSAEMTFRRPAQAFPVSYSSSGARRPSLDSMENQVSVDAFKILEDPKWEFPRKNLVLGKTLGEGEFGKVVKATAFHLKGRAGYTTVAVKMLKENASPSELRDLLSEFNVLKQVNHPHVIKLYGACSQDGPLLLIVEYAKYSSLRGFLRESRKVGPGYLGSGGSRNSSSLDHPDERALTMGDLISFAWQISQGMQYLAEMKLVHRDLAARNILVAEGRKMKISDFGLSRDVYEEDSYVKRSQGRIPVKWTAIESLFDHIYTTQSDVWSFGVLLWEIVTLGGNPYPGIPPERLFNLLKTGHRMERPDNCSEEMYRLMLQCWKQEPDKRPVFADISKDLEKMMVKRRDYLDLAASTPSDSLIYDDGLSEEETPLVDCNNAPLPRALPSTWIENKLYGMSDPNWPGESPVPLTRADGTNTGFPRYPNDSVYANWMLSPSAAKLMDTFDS

A-549 = assay: Cell proliferation inhibition, Cell Counting Kit-8, non-small cell lung cancer cell line; assay type: cell-based; details: A-549 cell line; 72 hours incubation; test concentration not given
RET(G810R) = target: T3, RET(G810R) (Homo sapiens, UniProt P07949, G810R); assay: Kinase panel inhibition, radiolabeled [γ-33P] ATP (Reaction Biology Corp); assay type: biochemical; details: ATP 10 µM, read-out: % Enzyme Activity (relative to DMSO controls) G810R
T3 construct: purchased Reaction Biology Corp
T3 sequence (P07949 29-1114 G810R): as the sequence (P07949 29-1114 G810S/M918T) above, with S782R, T890M counted along it

RET = target: T4, RET (Homo sapiens, UniProt P07949); assay: as above; assay type: biochemical; details: compound at 1 uM; ATP 10 µM; read-out: % Enzyme Activity (relative to DMSO controls) RET
T4 construct: purchased Reaction Biology Corp
T4 sequence (P07949 29-1114): as the sequence (P07949 29-1114 G810S/M918T) above, with S782G, T890M counted along it

RET(V804M) = target: T5, RET(V804M) (Homo sapiens, UniProt P07949, V804M); assay: as above; assay type: biochemical; details: compound at 1 uM; ATP 10 µM; read-out: % Enzyme Activity (relative to DMSO controls) V804M
T5 construct: purchased Reaction Biology Corp
T5 sequence (P07949 29-1114 V804M): as the sequence (P07949 29-1114 G810S/M918T) above, with V776M, S782G, T890M counted along it

[1] = Data 1, read-out: % Enzyme Activity (relative to DMSO controls) RET-CCDC6 (PTC1) Data 1
[2] = Data 2, read-out: % Enzyme Activity (relative to DMSO controls) RET-CCDC6 (PTC1) Data 2
[3] = Data 1, read-out: % Enzyme Activity (relative to DMSO controls) RET (G810S/M918T) Data 1
[4] = Data 2, read-out: % Enzyme Activity (relative to DMSO controls) RET (G810S/M918T) Data 2

Structure (SMILES)	remaining activity at 10 µM (RET-CCDC6 (PTC1); [1])	remaining activity at 10 µM (RET-CCDC6 (PTC1); [2])	remaining activity at 10 µM (RET (G810S/M918T); [3])	remaining activity at 10 µM (RET (G810S/M918T); [4])	remaining activity at 0.1 µM (RET(G810R); compound at 0.1 uM)	remaining activity at 1 µM (RET)	remaining activity at 1 µM (RET(G810R); compound at 1 uM)	remaining activity at 1 µM (RET(V804M))	remaining activity at 30 µM (RET (G810S/M918T); [3])	remaining activity at 30 µM (RET (G810S/M918T); [4])	Cell Proliferation (% of control) (A-549)
Nc1cc(-c2ccc(N3CCC(N4CCOCC4)CC3)nc2)c2nccnc2c1 [Example 25, 8-(6-(4-morpholinopiperidin-1-yl)pyridin-3-yl)quinoxalin-6-amine]	18.3%	20.4%	46.8%	45.2%							75.52%
CCS(=O)(=O)N1CCN(c2ccc(-c3cc(N)cc4nccnc34)cn2)CC1 [Example 22, 8-(6-(4-(ethylsulfonyl)piperazin-1-yl)pyridin-3-yl)quinoxalin-6-amine]	2.9%	3.03%	15.7%	15.1%							68.42%
CCCCNc1cc(-c2ccc(N3CC[C@H](NC(=O)c4ccccc4F)C3)nc2)c2nccnc2c1 [Example 15, (S)-N-(1-(5-(7-(butylamino)quinoxalin-5-yl)pyridin-2-yl)pyrrolidin-3-yl)-2-fluorobenzamide]	1.08%	1.1%	-0.06%	-0.2%							51.55%
Nc1cc(-c2ccc(N3CCOCC3)nc2)c2nccnc2c1 [Example 19, 8-(6-morpholinopyridin-3-yl)quinoxalin-6-amine]	5.69%	6.45%	27.3%	26.3%							71.46%
O=C(Nc1cc(-c2ccc(N3CC(Oc4cccc(F)c4)C3)nc2)c2nccnc2c1)c1ccccn1 [Example 9, N-(8-(6-(3-(3-fluorophenoxy)azetidin-1-yl)pyridin-3-yl)quinoxalin-6-yl)picolinamide]	2.81%	3.74%	49.5%	50%							18.67%
Nc1cc(-c2cnc(N3CC(Oc4cccc(F)c4)C3)nc2)c2nccnc2c1 [Example 29, 8-(2-(3-(3-fluorophenoxy)azetidin-1-yl)pyrimidin-5-yl)quinoxalin-6-amine]	1.22%	1.07%	0.28%	0.11%	76.3%						12.87%
CCN1CCN(c2ccc(-c3cc(N)cc4nccnc34)cn2)CC1 [Example 21, 8-(6-(4-ethylpiperazin-1-yl)pyridin-3-yl)quinoxalin-6-amine]	26%	28%	66.7%	63.3%							64.90%
CC(C)CNc1cc(-c2ccc(N3CC(Oc4cccc(F)c4)C3)nc2)c2nccnc2c1 [Example 7, 8-(6-(3-(3-fluorophenoxy)azetidin-1-yl)pyridin-3-yl)-N-isobutylquinoxalin-6-amine]	0.85%	1.07%	4.28%	4.26%							53.57%
CCCNc1cc(-c2ccc(N3CC[C@H](NC(=O)c4ccccc4F)C3)nc2)c2nccnc2c1 [Example 13, (S)-2-fluoro-N-(1-(5-(7-(propylamino)quinoxalin-5-yl)pyridin-2-yl)pyrrolidin-3-yl)benzamide]	0.91%	1.28%	-0.06%	-0.31%							39.32%
O=[N+]([O-])c1cc(-c2ccc(F)nc2)c2nccnc2c1 [Intermediate Compound 15, 5-(6-fluoropyridin-3-yl)-7-nitroquinoxaline]						93.5%	99.5%	94.9%	97.4%	99.4%	
CC(C)CNc1cc(-c2ccc(N3CC[C@H](NC(=O)c4ccccc4F)C3)nc2)c2nccnc2c1 [Example 16, (S)-2-fluoro-N-(1-(5-(7-(isobutylamino)quinoxalin-5-yl)pyridin-2-yl)pyrrolidin-3-yl)benzamide]	1.21%	1.51%	3.39%	3.22%							65.29%
CC(C)Nc1cc(-c2ccc(N3CC[C@H](NC(=O)c4ccccc4F)C3)nc2)c2nccnc2c1 [Example 14, (S)-2-fluoro-N-(1-(5-(7-(isopropylamino)quinoxalin-5-yl)pyridin-2-yl)pyrrolidin-3-yl)benzamide]	1.04%	0.72%	5.08%	4.68%							47.83%
CCCCNc1cc(-c2ccc(N3CC(Oc4cccc(F)c4)C3)nc2)c2nccnc2c1 [Example 6, N-butyl-8-(6-(3-(3-fluorophenoxy)azetidin-1-yl)pyridin-3-yl)quinoxalin-6-amine]	1.05%	1.32%	2.18%	2.37%							68.59%

The next lines start with results.

remaining activity at 10 µM (RET-CCDC6 (PTC1); [1])	remaining activity at 10 µM (RET-CCDC6 (PTC1); [2])	remaining activity at 10 µM (RET (G810S/M918T); [3])	remaining activity at 10 µM (RET (G810S/M918T); [4])	remaining activity at 0.1 µM (RET(G810R); compound at 0.1 uM)	remaining activity at 1 µM (RET)	remaining activity at 1 µM (RET(G810R); compound at 1 uM)	remaining activity at 1 µM (RET(V804M))	remaining activity at 30 µM (RET (G810S/M918T); [3])	remaining activity at 30 µM (RET (G810S/M918T); [4])	Structure (SMILES)	Cell Proliferation (% of control) (A-549)
1.19%	1.2%	0.97%	0.98%							Nc1cc(-c2cnc(N3CC[C@H](NC(=O)c4ccccc4F)C3)nc2)c2nccnc2c1 [Example 30, (S)-N-(1-(5-(7-aminoquinoxalin-5-yl)pyrimidin-2-yl)pyrrolidin-3-yl)-2-fluorobenzamide]	42.94%
1.11%	1.31%	-0.23%	0.04%							CCCNc1cc(-c2ccc(N3CC(Oc4cccc(F)c4)C3)nc2)c2nccnc2c1 [Example 4, 8-(6-(3-(3-fluorophenoxy)azetidin-1-yl)pyridin-3-yl)-N-propylquinoxalin-6-amine]	43.59%
1.34%	0.72%	5.96%	6.14%							CC(C)Nc1cc(-c2ccc(N3CC(Oc4cccc(F)c4)C3)nc2)c2nccnc2c1 [Example 5, 8-(6-(3-(3-fluorophenoxy)azetidin-1-yl)pyridin-3-yl)-N-isopropylquinoxalin-6-amine]	36.07%
12.9%	15.3%	48.1%	45%							CN1CCN(c2ccc(-c3cc(N)cc4nccnc34)cn2)CC1 [Example 20, 8-(6-(4-methylpiperazin-1-yl)pyridin-3-yl)quinoxalin-6-amine]	81.61%
1.9%	2.31%	24.7%	25.5%							O=C(Nc1cc(-c2ccc(N3CC[C@H](NC(=O)c4ccccc4F)C3)nc2)c2nccnc2c1)c1ccccn1 [Example 18, (S)-N-(8-(6-(3-(2-fluorobenzamido)pyrrolidin-1-yl)pyridin-3-yl)quinoxalin-6-yl)picolinamide]	35.32%
1.92%	2.29%	9.23%	9.45%							Nc1cc(-c2ccc(N3CCN(c4ccccn4)CC3)nc2)c2nccnc2c1 [Example 23, 8-(6-(4-(pyridin-2-yl)piperazin-1-yl)pyridin-3-yl)quinoxalin-6-amine]	78.36%
1.15%	1.33%	11.9%	11.9%							O=C(Nc1cc(-c2ccc(N3CC[C@H](NC(=O)c4ccccc4F)C3)nc2)c2nccnc2c1)c1ccco1 [Example 17, (S)-N-(8-(6-(3-(2-fluorobenzamido)pyrrolidin-1-yl)pyridin-3-yl)quinoxalin-6-yl)furan-2-carboxamide]	48.96%
0.94%	1.32%	1.23%	1.3%							CCNc1cc(-c2ccc(N3CCN(Cc4ccc(Br)cc4)CC3)nc2)c2nccnc2c1 [Example 26, 8-(6-(4-(4-bromobenzyl)piperazin-1-yl)pyridin-3-yl)-N-ethylquinoxalin-6-amine]	79.51%
1.51%	1.27%	2.24%	2.38%							Nc1cc(-c2ccc(N3CCN(Cc4ccc(Br)cc4)CC3)nc2)c2nccnc2c1 [Example 24, 8-(6-(4-(4-bromobenzyl)piperazin-1-yl)pyridin-3-yl)quinoxalin-6-amine]	15.35%
